From patent US8067582B2 (Bristol-Myers Squibb Company, priority 2007, dated 2011)

These compounds were tested against T1, androgen receptor (AR) (Homo sapiens, UniProt P10275) (assay: MDA-MB-453 Androgen Receptor Transactivation Assay (PSA-Luc reporter, 3 nM DHT)). Details: MDA-MB-453 cells, antagonism in presence of 3 nM DHT, 48 hour incubation.
T1 sequence (P10275 1-920): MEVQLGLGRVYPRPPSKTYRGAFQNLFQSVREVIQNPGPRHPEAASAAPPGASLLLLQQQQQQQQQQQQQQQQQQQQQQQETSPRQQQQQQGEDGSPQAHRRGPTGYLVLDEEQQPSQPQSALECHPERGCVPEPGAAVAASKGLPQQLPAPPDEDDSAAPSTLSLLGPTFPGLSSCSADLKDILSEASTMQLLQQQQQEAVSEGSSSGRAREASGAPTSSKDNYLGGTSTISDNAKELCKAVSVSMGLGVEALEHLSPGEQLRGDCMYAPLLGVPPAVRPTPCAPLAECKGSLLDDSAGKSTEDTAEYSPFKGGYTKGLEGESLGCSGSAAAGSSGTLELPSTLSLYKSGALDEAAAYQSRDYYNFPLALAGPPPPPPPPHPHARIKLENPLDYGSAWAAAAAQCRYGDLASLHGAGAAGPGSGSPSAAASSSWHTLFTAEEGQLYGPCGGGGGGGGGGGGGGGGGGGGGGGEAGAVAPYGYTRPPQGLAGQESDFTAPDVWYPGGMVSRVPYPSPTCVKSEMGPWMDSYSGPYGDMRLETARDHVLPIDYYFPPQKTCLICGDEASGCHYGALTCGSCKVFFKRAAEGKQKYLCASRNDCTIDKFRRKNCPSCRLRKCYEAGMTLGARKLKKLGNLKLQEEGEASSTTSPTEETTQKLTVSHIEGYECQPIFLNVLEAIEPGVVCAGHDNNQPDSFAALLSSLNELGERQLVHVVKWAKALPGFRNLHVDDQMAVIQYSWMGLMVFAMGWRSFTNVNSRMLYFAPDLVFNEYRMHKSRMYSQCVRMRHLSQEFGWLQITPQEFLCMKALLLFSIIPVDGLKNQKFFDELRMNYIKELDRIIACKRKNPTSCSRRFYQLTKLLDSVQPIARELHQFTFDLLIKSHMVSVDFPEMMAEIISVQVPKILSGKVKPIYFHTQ
Format: cell-based
Description: Compounds can be tested in a cell based transactivation assay used to measure the antagonism of androgen receptor (AR) transcriptional activity. The transactivation assay provides a means of identifying antagonists that inhibit the effects of the native hormone dihydrotestosterone (DHT). […] The pGL3 PSA-Luc reporter plasmid is comprised of the cDNA for the firefly luciferase gene and the upstream promoter sequences containing the androgen response elements (AREs) of the prostate specific antigen (PSA). This plasmid functions as a reporter for the transcription-modulating activity of the AR. In order to detect antagonists, the transactivation assay is conducted in the presence of constant concentration of the natural AR hormone (DHT) to induce a defined reporter signal. Addition of increasing concentrations of the suspected antagonist will decrease the reporter signal (luciferase activity).
MDA-MB-453 and 22 RV1 cells were maintained in DMEM (Cellgro, Cat. #10-014-CM) or RPMI 1640 (Gibco Cat. #11875-085) respectively and supplemented with 10% FBS (Invitrogen/GIBCO Life Science). Cells were bulk transfected in flasks with 1.3 ug/ml pGL3 PSA-Luc plasmid by using the Lipofectamine 2000 Reagent (Invitrogen, Cat. #11668-019) and serum-free Opti-MEM I media (Invitrogen, Cat #31985-070) according to the manufacturer's optimized conditions. Transfection was conducted at 37° C. with 5% CO2 for 16-18 hours. Following transfection, cells are washed, treated with trypsin, counted, and seeded in a 96-well plate at 30,000 cells per well in DMEM containing 10% Charcoal/Dextran Treated Fetal Bovine Serum (Gibco Cat. #11054-020) for MDA-MB-453 cells or RPMI 1640 (Gibco Cat. #110835) containing 10% FBS (Invitrogen/GIBCO Life Science) for 22 RV1 cells.
Following transfection, cells were incubated in the absence (blank) or presence (control) of 3 nM DHT (Sigma, Cat. #A-8380) and in the presence or absence of the standard antiandrogen bicalutamide or test compounds ranging in concentrations from 10^−10 to 10^−5M. Duplicates were used for each sample. The compound dilutions were performed by the Tecan Genesis (Tecan, Triangle Park, N.C.). After a 48 hour incubation, luciferase activity was measured using the Steady-Glo Luciferase Assay System (Promega, Cat. #E2550) according to manufacturer's specifications and luminescence was measured on a Packard TopCount (PerkinElmer). For each luciferase sample reading, the percent control (in absence of compounds) was calculated as: % Control=100×[averagesample−averageblank]/[averagecontrol−averageblank] Data was plotted and the IC50 value was defined as the concentration of compound that inhibited 50% of the luciferase activity for the controls.
Compounds described herein were tested in the AR transactivation assay described immediately above, using MDA-MB-453 cells.

Structure (SMILES)	IC50
CC[C@@]12O[C@]3(CCO[C@@H]4[C@H]3[C@H]1C(=O)N4c1ccc(C#N)c(C(F)(F)F)c1)C[C@@H]2O (single isomer, unassigned) [Example 61]	≥ 7500 nM
N#Cc1ccc(N2C(=O)[C@@H]3[C@@H]4[C@H]2OCC[C@@]42CC[C@@H]3O2)cc1C(F)(F)F (single isomer, unassigned) [Example 53]	1200 nM
CC(=O)N[C@@H]1[C@@H](O)[C@]23CCO[C@@H]4[C@H]2[C@@H](C(=O)N4c2ccc(C#N)c(C(F)(F)F)c2)[C@@]1(C)O3 (stereo in doubt) [Example 254, N-((1S,2R,3R,4R,5R,8R,12S)-7-(4-cyano-3-(trifluoromethyl)phenyl)-2-hydroxy-4-methyl-6-oxo-9,13-dioxa-7-azatetracyclo[6.3.1.1^1,4.0^5,12]tridec-3-yl)acetamide]	4950 nM
CNS(=O)(=O)N[C@H]1C[C@@]2(C)O[C@@]13CCO[C@H]1[C@@H]3[C@@H]2C(=O)N1c1ccc(C#N)c(Cl)c1 [Example 47, N-((1R,2S,4R,5S,8S,12R)-7-(3-Chloro-4-cyanophenyl)-4-methyl-6-oxo-9,13-dioxa-7-azatetracyclo[6.3.1.1^1,4.0^5,12]tridec-2-yl)-N′-methylsulfamide]	1610 nM
CCNC(=O)[C@]12C(=O)N(c3ccc(C#N)c(C(F)(F)F)c3)[C@@H]3OCC[C@@]4(C[C@H](O)[C@]1(C)O4)[C@@H]32 (single isomer, unassigned) [Example 22]	> 7500 nM
CCS(=O)(=O)N[C@H]1C[C@@]2(C)O[C@@]13CCO[C@H]1[C@@H]3[C@@H]2C(=O)N1c1ccc(C#N)c(C(F)(F)F)c1F [Example 190, N-((1R,2S,4R,5S,8S,12R)-7-(4-Cyano-2-fluoro-3-(trifluoromethyl)phenyl)-4-methyl-6-oxo-9,13-dioxa-7-azatetracyclo[6.3.1.1^1,4.0^5,12]tridec-2-yl)ethanesulfonamide]	2270 nM
C[C@@]12O[C@]3(CCO[C@@H]4[C@H]3[C@H]1C(=O)N4c1ccc(C#N)c(C(F)(F)F)c1)C[C@H]2N [Example 13, 4-((1S,3R,4R,5R,8R,12S)-3-amino-4-methyl-6-oxo-9,13-dioxa-7-azatetracyclo[6.3.1.1^1,4.0^5,12]tridec-7-yl)-2-(trifluoromethyl)benzonitrile]	> 7500 nM
C[C@@]12C[C@H](N)[C@]3(CCO[C@H]4[C@@H]3[C@@H]1C(=O)N4c1ccc(C#N)c(Cl)c1)O2 [Example 45, 4-((1R,2S,4R,5S,8S,12R)-2-amino-4-methyl-6-oxo-9,13-dioxa-7-azatetracyclo[6.3.1.1^1,4.0^5,12]tridec-7-yl)-2-chlorobenzonitrile]	12800 nM
C[C@@]12C[C@H](O)[C@]3(CO[C@H]4[C@@H]3[C@@H]1C(=O)N4c1ccc(C#N)c(C(F)(F)F)c1)O2 [Example 38, 4-((1S,4S,7S,8R,10S,11R)-10-Hydroxy-8-methyl-6-oxo-3,12-dioxa-5-azatetracyclo[5.3.1.1^1,8.0^4,11]dodec-5-yl)-2-(trifluoromethyl)benzonitrile]	1090 nM
C[C@@]12O[C@]3(CCO[C@@H]4[C@H]3[C@H]1C(=O)N4c1ccc(C#N)c(C(F)(F)F)c1)C[C@@H]2O (single isomer, unassigned) [Example 2]	11000 nM
C[C@@]12O[C@]3(CCO[C@@H]4[C@H]3[C@H]1C(=O)N4c1ccc(C#N)c(C(F)(F)F)c1)C[C@H]2N=[N+]=[N-] [Example 12, 4-((1S,3R,4R,5R,8R,12S)-3-azido-4-methyl-6-oxo-9,13-dioxa-7-azatetracyclo[6.3.1.1^1,4.0^5,12]tridec-7-yl)-2-(trifluoromethyl)benzonitrile]	> 7500 nM
C[C@]12CC[C@@]3(CCO[C@@H]4[C@H]3[C@H]1C(=O)N4c1ccc(C#N)c(C(F)(F)F)c1)O2 [Example 51, 4-((1S,4S,5R,8R,12S)-4-methyl-6-oxo-9,13-dioxa-7-azatetracyclo[6.3.1.1^1,4.0^5,12]tridec-7-yl)-2-(trifluoromethyl)benzonitrile]	1810 nM
C[C@@]12C[C@@](C)(O)[C@]3(CCO[C@H]4[C@@H]3[C@@H]1C(=O)N4c1ccc(C#N)c(C(F)(F)F)c1)O2 [Example 37, 4-((1R,2R,4R,5S,8S,12R)-2-hydroxy-2,4-dimethyl-6-oxo-9,13-dioxa-7-azatetracyclo[6.3.1.1^1,4.0^5,12]tridec-7-yl)-2-(trifluoromethyl)benzonitrile]	1160 nM
CC[C@]12C[C@@H](O)[C@@]3(CCO[C@@H]4[C@H]3[C@H]1C(=O)N4c1ccc(C#N)c(C(F)(F)F)c1)O2 (single isomer, unassigned) [Example 59]	≥ 7500 nM

Same assay, conditions: MDA-MB-453 cells, antagonism in presence of 3 nM DHT, 48 hour incubation, read-out: IC50

IC50	Structure (SMILES)
6050 nM	C[C@]12O[C@@]3(CCO[C@H]4[C@@H]3[C@@H]1C(=O)N4c1ccc(Cl)c(F)c1)C[C@H]2O [Example 138, (1S,3R,4S,5S,8S,12R)-7-(4-chloro-3-fluorophenyl)-3-hydroxy-4-methyl-9,13-dioxa-7-azatetracyclo[6.3.1.1^1,4.0^5,12]tridecan-6-one]
1100 nM	C[C@]12O[C@@]3(CCO[C@H]4[C@@H]3[C@@H]1C(=O)N4c1cc(Cl)cc(Cl)c1)C[C@H]2O [Example 149, (1S,3R,4S,5S,8S,12R)-7-(3,5-dichlorophenyl)-3-hydroxy-4-methyl-9,13-dioxa-7-azatetracyclo[6.3.1.1^1,4.0^5,12]tridecan-6-one]
1720 nM	C#Cc1cc(N2C(=O)[C@H]3[C@H]4[C@@H]2OCC[C@]42C[C@@H](O)[C@@]3(C)O2)ccc1Cl [Example 145, (1S,3R,4S,5S,8S,12R)-7-(4-chloro-3-ethynylphenyl)-3-hydroxy-4-methyl-9,13-dioxa-7-azatetracyclo[6.3.1.1^1,4.0^5,12]tridecan-6-one]
2480 nM	C[C@@]12C[C@H](O)[C@]3(CCO[C@H]4[C@@H]3[C@@H]1C(=O)N4c1cc(Cl)cc(Cl)c1)O2 [Example 117, (1R,2S,4R,5S,8S,12R)-7-(3,5-dichlorophenyl)-2-hydroxy-4-methyl-9,13-dioxa-7-azatetracyclo[6.3.1.1^1,4.0^5,12]tridecan-6-one]

Structure (SMILES)	IC50
C[C@]12O[C@@]3(CCO[C@H]4[C@@H]3[C@@H]1C(=O)N4c1ccc(C#N)c(F)c1)C[C@H]2O [Example 137, 2-Fluoro-4-((1S,3R,4S,5S,8S,12R)-3-hydroxy-4-methyl-6-oxo-9,13-dioxa-7-azatetracyclo[6.3.1.1^1,4.0^5,12]tridec-7-yl)benzonitrile]	6240 nM
C[C@]12C[C@@H](O)[C@@]3(CCO[C@@H]4[C@H]3[C@H]1C(=O)N4c1ccc(C#N)c(Br)c1)O2 [Example 240, 2-Bromo-4-((1S,2R,4S,5R,8R,12S)-2-hydroxy-4-methyl-6-oxo-9,13-dioxa-7-azatetracyclo[6.3.1.1^1,4.0^5,12]tridec-7-yl)benzonitrile]	6380 nM
